Measurements taken from publication PMC13401508 (Pharmacological research, 2026).

How the values were obtained:
[1] = system: RM1-BM-Luc cells; test: Combination and survival study, RM1-BM-Luc syngeneic model; assay type: in vivo, C57BL/6 mice; details: RM1-BM-Luc in C57BL/6, day 14, IVMT-Rx-4 30 mg/kg and/or Docetaxel 5 mg/kg 3X a week for two weeks
Method: (§1) Both syngeneic (C57BL/6) and athymic nude mice were used for survival studies. Tumor cells (RM1-BM-Luc or PC3-ML-Luc) were injected intracardially in a cohort of 40 animals. […] In the combination groups, both regimens were administered 3X a week for two-weeks at the same dose as a single therapy. Animals were imaged periodically and maintained until euthanization was required.
(§2) Fig. 5. […] A and B) RM1-BM-Luc (A) or PC3-ML-Luc (B) cells were implanted I.C. in C57BL/6 and athymic nude mice, respectively. […] BLI images were used to detect bone metastases (the percentage incidence of bone metastases in animals was calculated at a single time point, day 14). Values are presented at the bottom panel of the respective group (red, number of animals positive for metastasis and black, total number of experimental animals). C and D) Animals were kept until mandated euthanasia based on IACUC guidelines, considered as disease associated death. The Kaplan–Meier survival curves were generated using GraphPad in both models as described in (A) and (B), respectively. E and F) Log-rank test was performed and values between different experimental groups are presented.

[2] = system: PC3-ML-Luc cells; test: Combination and survival study, PC3-ML-Luc model; assay type: in vivo; details: PC3-ML-Luc in athymic nude mice, day 14, IVMT-Rx-4 30 mg/kg and/or Docetaxel 5 mg/kg 3X a week for two weeks
Method: as §1, §2

[3] = biological target: T1, CYP3A4 (Homo sapiens, UniProt P08684); test: Time dependent CYP inhibition (TDI); assay type: in vitro ADME; details: human liver microsomes, with or without NADPH
T1 construct: in the presence of human liver microsomes; from tissue; host or cells: human liver microsomes
Method: Then, the specific CYP3A4 substrate was added, and aliquots were collected at various time points. Samples were then diluted with ultra-pure water and analyzed by LC-MS/MS. Area ratio and remaining Activity (%) were calculated as above and IC50 values was calculated using Excel XLfit 5.3.1.3.

[4] = Thermodynamic solubility in PBS, pH 7.4; assay type: physicochemical
[5] = system: HS5, RWPE-1, C4–2B, PC3-ML, ARCaP-M and RM1-BM cells; test: Colony formation (clonal) assay; assay type: cell-based, human and murine; details: 50 μM, six repeated doses over a two-week period, tumor and non-tumor cells
Method: 200 cells/well were seeded in triplicate in 6-well plates. […] The colonies were fixed with ice-cold Methanol and stained with 0.5% crystal violet and counted.
Fig. 1. Primary characterization of IVMT-Rx-4. A) Chemical structure (upper panel) and synthesis scheme (lower panel). […] All proteins were extracted, and Western blotting was performed immediately after heating. Quantifications were obtained in the absence (control) or presence of IVMT-Rx-4 and values are presented as percentage of RT (room temperature) normalized for the experimental groups (control, IVMT-Rx-4). SOD (Superoxide dismutase) was used as an endogenous control. […] Colonies were stained with crystal violet and counted (n = 3 ± SD; ns: non-significant). […] Invaded cells were stained with crystal violet. Top panel: representative photograph of invaded cells under different experimental settings. Bottom panel: graphical representation of number of invaded cells/field for different cell lines (n = 3 ± SD; * p < 0.05).

[6] = Log D by shake flask (pH 7.4); assay type: physicochemical; details: pH 7.4, octanol/phosphate buffer
Method: Sodium Phosphate buffer pH 7.4 (10 mM) was used as the aqueous phase and octanol was used as the organic phase. […] The sealed plate was incubated at 25 °C with continuous agitation at 2000 rpm for 2 hrs. Samples were then separated by centrifugation, diluted 100-fold with a mixture of H20 and acetonitrile containing internal standard, and analyzed via LC-MS/MS. The Log D value was calculated using the following equation: […]

[7] = biological target: T2, PXR (Homo sapiens, UniProt O75469); test: PXR assay using DPX2 cells; assay type: cell-based
T2 construct: expressed in transfected cells; host or cells: DPX2 cells
T2 sequence (O75469 1-434): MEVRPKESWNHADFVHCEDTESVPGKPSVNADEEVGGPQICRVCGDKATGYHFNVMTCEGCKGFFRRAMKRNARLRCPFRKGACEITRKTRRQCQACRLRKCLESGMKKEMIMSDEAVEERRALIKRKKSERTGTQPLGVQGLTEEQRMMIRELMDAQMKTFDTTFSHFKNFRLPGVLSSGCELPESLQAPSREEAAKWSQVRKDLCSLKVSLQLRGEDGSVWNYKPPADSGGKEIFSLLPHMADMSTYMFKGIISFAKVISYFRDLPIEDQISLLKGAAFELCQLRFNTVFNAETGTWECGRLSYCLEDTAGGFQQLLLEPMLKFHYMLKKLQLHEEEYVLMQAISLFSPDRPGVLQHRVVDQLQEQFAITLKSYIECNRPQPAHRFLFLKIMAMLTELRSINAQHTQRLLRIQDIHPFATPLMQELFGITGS
Method: DPX2 cells were initially cultured in T-75 flasks and maintained at 37°C in a humidified incubator with 5% CO2 and 95% relative humidity. Cells were allowed to reach 70-80% confluence prior to subculture. Next, cells were transferred to a culture plate and incubated for an additional 24 hours to allow for attachment and recovery prior to treatment. […] Cell viability and luciferase activity were measured using the CellTiter-Fluor™ Cell Viability Assay and One-GloTM Luciferase Assay System, respectively. Luciferase activity was normalized to viable number and fold activation of PXR was calculated using the following equation: […]

[8] = Stability in liver microsomes with NADPH and UDPGA; assay type: in vitro ADME; details: all species (human, monkey, dog, rat, mouse), NADPH and UDPGA added
Method: Test samples were incubated at 37 °C, and Verapamil was used as a positive control. Samples were drawn from the incubation solution at different timepoints, centrifuged, then diluted with ultra-pure H20 and analyzed via LC-MS/MS. The natural logarithm of the remaining parent drug at each timepoint was plotted against incubation time, and the following equation was used to calculate the in vitro half-life:
in vitro t1/2 = -(0.693/k), where k is the rate constant.

[9] = system: Caco-2 cell monolayer; test: Caco-2 bidirectional permeability; assay type: in vitro ADME
Method: To prepare the Caco-2 cell monolayer, 50 µL and 25 µL of cell culture medium (Dulbecco’s modified Eagle’s medium, DMEM) were added to each well of the inserts and reservoir, respectively, within a 96-well HTS Transwell plate (Corning, NY, USA). The plate was incubated at 37 °C and 5% CO2 for 1 hr. prior to cell seeding. Caco-2 cells were then diluted to 6.86 x 10^5 cells/mL using culture medium and 50 µL of cell suspension were seeded into the plate, and incubated at 37 °C, 5% CO2, and 95% relative humidity for 14-18 days. During this time, the cells were cultivated with media replacements occurring every other day. Cells were allowed to grow and differentiate and the integrity of the Caco-2 cell monolayer was evaluated by measurement of transepithelial electrical resistance (TEER) using a Millicell Epithelial Volt-Ohm measuring system (Millipore, USA).
Prior to the assay, the established monolayer was washed twice with pre-warmed HBSS and incubated at 37 °C for 30 minutes. A bidirectional permeability assay was performed simultaneously using two different plates as described previously (Supplementary Reference: Cui Y, Desevaux C, Truebenbach I, Sieger P, Klinder K, Long A, Sauer A. A Bidirectional Permeability Assay for beyond Rule of 5 Compounds. Pharmaceutics. 2021 Jul 27;13(8):1146. doi: 10.3390/pharmaceutics13081146. PMID: 34452112; PMCID: PMC8400635.): one assessed permeability from the apical to the basolateral side, while the other assessed from the basolateral to the apical side. […] For apical to basolateral permeability, 108 µL of working solution was loaded into the apical compartment, whereas 308 µL of working solution was added to the basolateral compartment for basolateral to apical permeability. The samples collected from donor and receiver compartment were mixed with 72 µL transport buffer and 240 µL of acetonitrile containing internal standard (IS, 100 nM alprazolam, 200 nM Caffeine and 100 nM tolbutamide), centrifuged at 1000 rpm for 10 minutes. […] In doing so, the following equations were used: […]
Where, Papp is apparent permeability (cm/s x 10^-6), dQ/dt is the rate of drug transport (pmol/second), A is the surface area of the membrane (cm^2), and D0 is the initial donor concentration (nM; pmol/cm^3). (B-A) indicates basolateral to apical permeation, where (A-B) indicates apical to basolateral.

[10] = system: Salmonella typhimurium TA98 & TA100; test: Mini-Ames assay; assay type: cell-based
Method: The mini-AMES assay was performed in Pharmaron, Inc. following the standard protocol as developed by the in-house scientist. […] The assay was conducted in the presence or absence of the S9 mix along with concurrent negative/solvent control and positive controls.

T1 sequence (P08684 whole entry): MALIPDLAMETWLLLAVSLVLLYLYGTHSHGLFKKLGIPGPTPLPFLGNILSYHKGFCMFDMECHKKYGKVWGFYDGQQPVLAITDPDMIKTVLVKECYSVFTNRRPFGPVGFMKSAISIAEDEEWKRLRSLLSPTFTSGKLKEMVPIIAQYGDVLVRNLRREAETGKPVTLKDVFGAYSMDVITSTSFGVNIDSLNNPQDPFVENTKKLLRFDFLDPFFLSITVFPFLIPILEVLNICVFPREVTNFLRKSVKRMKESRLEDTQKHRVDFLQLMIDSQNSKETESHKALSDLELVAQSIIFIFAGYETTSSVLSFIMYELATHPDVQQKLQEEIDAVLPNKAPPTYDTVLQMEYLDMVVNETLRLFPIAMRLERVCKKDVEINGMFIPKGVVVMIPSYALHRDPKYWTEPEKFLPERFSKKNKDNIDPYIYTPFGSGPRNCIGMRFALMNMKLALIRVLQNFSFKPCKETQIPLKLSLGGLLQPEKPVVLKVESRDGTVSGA

SMILES	bone metastases, Incident/Total number tested [1]	bone metastases, Incident/Total number tested [2]	Time-dependent inhibition (TDI), CYP3A4 [3]	Thermodynamic solubility in PBS, pH 7.4 [4]	cell proliferation (colony formation) [5]	Log D by shake flask (pH 7.4) [6]	PXR assay [7]	t½ in liver microsomes [8]	Caco-2 Efflux ratio ([9]; B-A/A-B)	Caco-2 Bidirectional A-B ([9]; apical to basolateral, 10 µM)	Caco-2 Bidirectional B-A ([9]; basolateral to apical, 10 µM)	Mini-Ames Assay (2-strain option: TA98 & TA100) [10]
CC(=O)O[C@@]12CO[C@@H]1C[C@H](O)[C@@]1(C)C(=O)[C@H](O)C3=C(C)[C@@H](OC(=O)[C@H](O)[C@@H](NC(=O)OC(C)(C)C)c4ccccc4)C[C@@](O)([C@@H](OC(=O)c4ccccc4)[C@H]21)C3(C)C [Docetaxel, reference compound]	5/8	3/8										
Cc1cc(NC(=O)c2nc3nc4c(c(=O)n3[nH]2)CCC4)c(C)cc1NC(=O)CCc1nnc(-c2ccccc2)o1 [PDZ1i, reference compound]			No TDI	10 mg/ML	did not inhibit cell proliferation	0.5	No induction	Minimal degradation: > 4 hr t½ in all species	300	0.04 ×10⁻⁶ cm/s	11.5 ×10⁻⁶ cm/s	Negative
